Results taken from patent US20050119253A1, “Method of treating mental disorders using of D4 and 5-HT2A antagonists, inverse agonists or partial agonists” (priority 2003, published 2005).
Where two headings read alike, the source gives them in different places. Values belong to the compound of their own block, whether it stands above or below them.

Assays:
Type in all cases: binding
D2 = D2 (Homo sapiens, UniProt P14416); assay: pKi of test compounds, D2 receptor
5-HT2A receptor = 5-HT2A receptor (Homo sapiens, UniProt P28223); assay: pKi of test compounds, 5-HT2A receptor
5-HT2A receptor, sequence (P28223 whole entry): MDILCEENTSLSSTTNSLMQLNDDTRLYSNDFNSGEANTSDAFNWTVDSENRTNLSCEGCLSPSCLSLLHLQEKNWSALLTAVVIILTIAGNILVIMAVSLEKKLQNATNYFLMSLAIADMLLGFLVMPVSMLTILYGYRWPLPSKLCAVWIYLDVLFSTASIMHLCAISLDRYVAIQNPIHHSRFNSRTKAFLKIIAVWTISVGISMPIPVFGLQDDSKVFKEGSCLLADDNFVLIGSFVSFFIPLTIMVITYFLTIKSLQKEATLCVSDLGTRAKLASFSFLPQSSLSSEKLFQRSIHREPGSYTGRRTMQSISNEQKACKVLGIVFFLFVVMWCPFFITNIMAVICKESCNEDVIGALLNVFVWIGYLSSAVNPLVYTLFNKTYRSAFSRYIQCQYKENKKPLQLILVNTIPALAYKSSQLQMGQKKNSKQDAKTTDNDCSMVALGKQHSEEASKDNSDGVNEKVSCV

Alpha2A = molecular target: T1, Alpha2A (Homo sapiens, UniProt P08913); assay: pKi of test compounds, adrenergic receptor Alpha2A
T1 sequence (P08913 1-465): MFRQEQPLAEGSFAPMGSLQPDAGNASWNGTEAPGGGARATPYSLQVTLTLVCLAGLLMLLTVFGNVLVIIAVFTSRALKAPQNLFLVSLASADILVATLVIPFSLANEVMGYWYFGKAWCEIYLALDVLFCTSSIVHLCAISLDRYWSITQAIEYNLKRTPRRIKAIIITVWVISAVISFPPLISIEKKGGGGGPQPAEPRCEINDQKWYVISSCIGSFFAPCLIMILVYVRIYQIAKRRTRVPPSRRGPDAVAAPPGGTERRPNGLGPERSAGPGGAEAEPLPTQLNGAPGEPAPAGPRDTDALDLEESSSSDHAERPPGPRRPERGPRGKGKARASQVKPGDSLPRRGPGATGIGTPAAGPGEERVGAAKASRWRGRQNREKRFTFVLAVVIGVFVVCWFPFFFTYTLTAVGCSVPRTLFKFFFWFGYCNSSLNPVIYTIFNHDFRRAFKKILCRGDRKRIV

5HT2C = molecular target: T2, 5HT2C (Homo sapiens, UniProt P28335); assay: pKi of test compounds, 5HT2C receptor
T2 sequence (P28335 33-458): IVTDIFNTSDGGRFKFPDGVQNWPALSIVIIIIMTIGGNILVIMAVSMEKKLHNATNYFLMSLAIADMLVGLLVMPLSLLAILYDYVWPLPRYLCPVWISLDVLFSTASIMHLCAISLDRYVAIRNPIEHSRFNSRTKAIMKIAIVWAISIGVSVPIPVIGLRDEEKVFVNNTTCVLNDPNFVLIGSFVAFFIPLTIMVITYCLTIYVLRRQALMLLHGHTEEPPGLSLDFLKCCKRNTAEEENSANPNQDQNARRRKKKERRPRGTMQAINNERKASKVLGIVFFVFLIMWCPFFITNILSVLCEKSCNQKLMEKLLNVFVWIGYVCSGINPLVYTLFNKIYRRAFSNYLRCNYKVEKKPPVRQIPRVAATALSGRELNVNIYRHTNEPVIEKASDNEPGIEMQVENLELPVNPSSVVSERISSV

5HT1A = molecular target: T3, 5HT1A (Homo sapiens, UniProt P08908); assay: pKi of test compounds, 5HT1A receptor
T3 sequence (P08908 1-422): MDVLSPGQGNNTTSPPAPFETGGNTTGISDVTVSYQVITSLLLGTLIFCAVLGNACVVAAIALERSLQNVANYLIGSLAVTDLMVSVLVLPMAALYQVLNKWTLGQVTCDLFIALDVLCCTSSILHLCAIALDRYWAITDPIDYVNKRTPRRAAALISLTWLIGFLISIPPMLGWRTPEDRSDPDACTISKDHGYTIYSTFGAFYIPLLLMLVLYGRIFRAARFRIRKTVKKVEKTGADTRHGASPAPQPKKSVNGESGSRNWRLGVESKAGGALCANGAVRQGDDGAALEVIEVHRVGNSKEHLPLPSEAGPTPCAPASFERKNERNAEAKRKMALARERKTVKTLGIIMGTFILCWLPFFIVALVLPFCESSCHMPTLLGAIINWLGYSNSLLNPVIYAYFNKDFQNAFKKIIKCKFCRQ

D3 = D3 (Homo sapiens, UniProt P35462); assay: pKi of test compounds, D3 receptor
D3, sequence (P35462 whole entry): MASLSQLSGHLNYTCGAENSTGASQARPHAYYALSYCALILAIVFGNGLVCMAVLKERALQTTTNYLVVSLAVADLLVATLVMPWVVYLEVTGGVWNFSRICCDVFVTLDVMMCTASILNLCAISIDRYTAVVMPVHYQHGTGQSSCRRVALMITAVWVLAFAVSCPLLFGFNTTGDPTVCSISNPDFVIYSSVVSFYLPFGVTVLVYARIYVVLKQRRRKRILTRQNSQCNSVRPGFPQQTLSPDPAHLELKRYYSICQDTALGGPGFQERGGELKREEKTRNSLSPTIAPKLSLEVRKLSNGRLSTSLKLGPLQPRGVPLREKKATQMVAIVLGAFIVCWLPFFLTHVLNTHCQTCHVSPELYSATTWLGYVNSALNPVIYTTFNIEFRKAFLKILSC

5HT6rat = 5HT6rat (Rattus norvegicus, UniProt P31388); assay: pKi of test compounds, 5HT6 receptor
Alpha2C = molecular target: T4, Alpha2C (Homo sapiens, UniProt P18825); assay: pKi of test compounds, adrenergic receptor Alpha2C
T4 sequence (P18825 1-462): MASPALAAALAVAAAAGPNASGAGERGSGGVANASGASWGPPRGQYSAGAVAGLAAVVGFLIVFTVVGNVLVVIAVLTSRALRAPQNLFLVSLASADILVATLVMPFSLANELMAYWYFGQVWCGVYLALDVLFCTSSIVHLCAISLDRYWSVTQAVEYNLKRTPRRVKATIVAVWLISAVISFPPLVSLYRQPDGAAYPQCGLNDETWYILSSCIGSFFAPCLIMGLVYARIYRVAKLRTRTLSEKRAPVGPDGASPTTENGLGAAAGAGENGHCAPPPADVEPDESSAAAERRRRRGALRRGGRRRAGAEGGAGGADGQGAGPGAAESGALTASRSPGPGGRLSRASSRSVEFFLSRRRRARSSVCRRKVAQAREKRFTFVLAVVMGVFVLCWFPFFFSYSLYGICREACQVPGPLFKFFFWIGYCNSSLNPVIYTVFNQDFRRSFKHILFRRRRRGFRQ

5HT2B = 5HT2B (Homo sapiens, UniProt P41595); assay: pKi of test compounds, 5HT2B receptor
5HT2B, sequence (P41595 whole entry, species assumed): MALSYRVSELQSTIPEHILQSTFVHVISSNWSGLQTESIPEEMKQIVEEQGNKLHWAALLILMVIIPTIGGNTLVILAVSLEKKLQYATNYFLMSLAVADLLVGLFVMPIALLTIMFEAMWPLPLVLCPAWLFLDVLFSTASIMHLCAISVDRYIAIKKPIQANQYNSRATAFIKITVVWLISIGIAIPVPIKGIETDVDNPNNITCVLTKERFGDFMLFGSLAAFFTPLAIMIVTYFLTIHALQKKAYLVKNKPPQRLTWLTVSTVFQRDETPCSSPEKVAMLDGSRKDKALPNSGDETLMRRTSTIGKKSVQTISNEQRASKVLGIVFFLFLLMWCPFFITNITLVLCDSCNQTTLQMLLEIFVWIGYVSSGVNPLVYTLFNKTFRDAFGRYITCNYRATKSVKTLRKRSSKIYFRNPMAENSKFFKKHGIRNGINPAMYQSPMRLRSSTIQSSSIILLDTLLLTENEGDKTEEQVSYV

Alpha1A = molecular target: T5, Alpha1A (Homo sapiens, UniProt P35348); assay: pKi of test compounds, adrenergic receptor Alpha1A
T5 sequence (P35348 1-466): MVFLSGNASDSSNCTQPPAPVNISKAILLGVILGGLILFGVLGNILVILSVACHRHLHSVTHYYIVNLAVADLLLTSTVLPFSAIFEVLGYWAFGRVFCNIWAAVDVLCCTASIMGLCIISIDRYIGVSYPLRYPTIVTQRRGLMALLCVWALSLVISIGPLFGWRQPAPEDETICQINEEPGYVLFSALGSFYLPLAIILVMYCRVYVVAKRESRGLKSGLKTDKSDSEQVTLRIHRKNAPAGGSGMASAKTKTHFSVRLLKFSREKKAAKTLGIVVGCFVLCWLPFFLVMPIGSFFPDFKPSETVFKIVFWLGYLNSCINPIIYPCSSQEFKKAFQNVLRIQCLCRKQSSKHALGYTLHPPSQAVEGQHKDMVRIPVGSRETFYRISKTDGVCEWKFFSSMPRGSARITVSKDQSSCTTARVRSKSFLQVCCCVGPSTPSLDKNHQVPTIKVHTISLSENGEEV

Alpha2B = Alpha2B (Homo sapiens, UniProt P18089); assay: pKi of test compounds, adrenergic receptor Alpha2B
Beta2 = Beta2 (Homo sapiens, UniProt P07550); assay: pKi of test compounds, adrenergic receptor Beta2
Beta2, sequence (P07550 whole entry): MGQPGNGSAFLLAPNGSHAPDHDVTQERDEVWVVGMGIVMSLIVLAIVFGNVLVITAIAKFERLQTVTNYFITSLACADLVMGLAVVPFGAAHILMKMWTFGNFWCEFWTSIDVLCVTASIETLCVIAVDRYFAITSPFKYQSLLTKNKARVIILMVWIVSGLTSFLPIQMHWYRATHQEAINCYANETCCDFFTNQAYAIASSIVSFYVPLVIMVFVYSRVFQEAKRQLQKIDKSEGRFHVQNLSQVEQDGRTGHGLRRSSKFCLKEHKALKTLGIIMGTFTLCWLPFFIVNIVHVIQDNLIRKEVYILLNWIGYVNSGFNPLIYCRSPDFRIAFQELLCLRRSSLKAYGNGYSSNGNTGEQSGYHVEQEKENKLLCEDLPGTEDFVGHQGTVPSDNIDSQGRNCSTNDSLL

Beta1 = Beta1 (Homo sapiens, UniProt P08588); assay: pKi of test compounds, adrenergic receptor Beta1
Beta1, sequence (P08588 whole entry): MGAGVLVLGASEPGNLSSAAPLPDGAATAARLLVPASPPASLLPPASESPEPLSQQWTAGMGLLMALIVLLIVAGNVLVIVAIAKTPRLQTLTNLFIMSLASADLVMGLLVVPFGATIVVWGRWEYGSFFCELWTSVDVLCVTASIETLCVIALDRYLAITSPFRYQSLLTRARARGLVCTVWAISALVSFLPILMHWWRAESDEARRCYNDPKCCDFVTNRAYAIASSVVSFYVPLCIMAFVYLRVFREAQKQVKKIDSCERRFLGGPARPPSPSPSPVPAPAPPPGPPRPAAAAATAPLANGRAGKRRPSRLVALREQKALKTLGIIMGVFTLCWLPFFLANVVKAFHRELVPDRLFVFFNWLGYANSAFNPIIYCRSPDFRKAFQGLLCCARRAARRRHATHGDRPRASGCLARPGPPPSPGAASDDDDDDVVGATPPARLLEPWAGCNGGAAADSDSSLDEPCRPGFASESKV

5HT7rat = 5HT7rat (Rattus norvegicus, UniProt P32305); assay: pKi of test compounds, 5HT7 receptor
5HT7rat, sequence (P32305 whole entry): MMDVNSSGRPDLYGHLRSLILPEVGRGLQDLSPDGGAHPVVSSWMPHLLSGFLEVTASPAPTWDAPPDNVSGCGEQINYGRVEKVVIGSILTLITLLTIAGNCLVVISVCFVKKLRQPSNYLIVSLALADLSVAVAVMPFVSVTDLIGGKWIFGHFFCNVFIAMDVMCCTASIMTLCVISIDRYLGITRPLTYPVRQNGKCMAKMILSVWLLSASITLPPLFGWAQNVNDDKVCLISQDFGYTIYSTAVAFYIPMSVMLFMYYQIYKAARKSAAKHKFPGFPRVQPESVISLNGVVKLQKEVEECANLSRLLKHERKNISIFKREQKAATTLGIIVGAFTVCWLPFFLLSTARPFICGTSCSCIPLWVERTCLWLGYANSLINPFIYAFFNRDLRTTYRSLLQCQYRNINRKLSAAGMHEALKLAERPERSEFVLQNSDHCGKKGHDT

D1 = D1 (Homo sapiens, UniProt P21728); assay: pKi of test compounds, D1 receptor
D1, sequence (P21728 whole entry): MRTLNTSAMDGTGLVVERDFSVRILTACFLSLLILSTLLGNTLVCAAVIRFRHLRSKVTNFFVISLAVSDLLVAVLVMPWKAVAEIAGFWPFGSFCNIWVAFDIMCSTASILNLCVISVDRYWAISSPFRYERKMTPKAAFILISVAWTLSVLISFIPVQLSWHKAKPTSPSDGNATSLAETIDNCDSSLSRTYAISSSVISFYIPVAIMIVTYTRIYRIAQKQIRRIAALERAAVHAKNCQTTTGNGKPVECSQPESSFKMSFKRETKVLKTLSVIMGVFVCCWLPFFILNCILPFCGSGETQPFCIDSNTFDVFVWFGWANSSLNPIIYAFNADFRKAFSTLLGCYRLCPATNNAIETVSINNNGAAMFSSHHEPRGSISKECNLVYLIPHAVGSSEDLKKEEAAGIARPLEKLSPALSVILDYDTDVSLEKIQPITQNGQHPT

D4 receptor = molecular target: T6, D4 receptor (Homo sapiens, UniProt P21917); assay: pKi of test compounds, D4 receptor
T6 sequence (P21917 1-419): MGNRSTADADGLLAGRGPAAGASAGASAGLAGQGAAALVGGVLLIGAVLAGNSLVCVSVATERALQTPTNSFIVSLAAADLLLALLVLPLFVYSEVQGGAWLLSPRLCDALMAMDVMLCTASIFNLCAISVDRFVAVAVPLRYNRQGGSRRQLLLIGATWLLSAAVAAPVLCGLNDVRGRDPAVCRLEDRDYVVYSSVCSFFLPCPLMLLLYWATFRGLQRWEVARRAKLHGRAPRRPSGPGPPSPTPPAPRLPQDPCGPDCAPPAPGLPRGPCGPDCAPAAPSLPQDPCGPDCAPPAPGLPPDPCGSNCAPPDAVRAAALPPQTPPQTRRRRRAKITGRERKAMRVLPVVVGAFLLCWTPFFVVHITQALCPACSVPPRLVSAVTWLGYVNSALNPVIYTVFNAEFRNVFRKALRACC

5HT1B = 5HT1B (Homo sapiens, UniProt P28222); assay: pKi of test compounds, 5HT1B receptor
5HT1B, sequence (P28222 whole entry, species assumed): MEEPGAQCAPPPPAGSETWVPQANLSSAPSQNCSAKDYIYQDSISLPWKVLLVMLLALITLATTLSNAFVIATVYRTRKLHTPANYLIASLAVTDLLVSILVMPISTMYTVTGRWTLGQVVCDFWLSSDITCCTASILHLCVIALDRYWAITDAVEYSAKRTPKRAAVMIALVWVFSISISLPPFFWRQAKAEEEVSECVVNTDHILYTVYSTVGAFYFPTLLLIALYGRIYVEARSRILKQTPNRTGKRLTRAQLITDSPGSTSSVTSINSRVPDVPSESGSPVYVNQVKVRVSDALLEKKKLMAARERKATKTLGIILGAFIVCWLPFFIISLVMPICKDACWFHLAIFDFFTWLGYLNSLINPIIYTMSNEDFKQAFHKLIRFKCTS

5HT1D = 5HT1D (Homo sapiens, UniProt P28221); assay: pKi of test compounds, 5HT1D receptor
5HT1D, sequence (P28221 whole entry, species assumed): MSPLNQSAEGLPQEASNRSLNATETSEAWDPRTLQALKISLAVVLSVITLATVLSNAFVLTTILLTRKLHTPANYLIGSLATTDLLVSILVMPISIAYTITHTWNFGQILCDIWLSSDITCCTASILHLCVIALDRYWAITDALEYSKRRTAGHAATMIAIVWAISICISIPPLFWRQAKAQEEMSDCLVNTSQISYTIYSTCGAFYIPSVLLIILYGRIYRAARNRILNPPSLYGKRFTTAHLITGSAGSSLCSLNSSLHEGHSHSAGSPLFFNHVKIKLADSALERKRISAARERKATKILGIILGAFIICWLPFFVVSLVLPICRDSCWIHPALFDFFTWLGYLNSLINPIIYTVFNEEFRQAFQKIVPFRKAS

5HT1E = 5HT1E (Homo sapiens, UniProt P28566); assay: pKi of test compounds, 5HT1E receptor
5HT1E, sequence (P28566 whole entry, species assumed): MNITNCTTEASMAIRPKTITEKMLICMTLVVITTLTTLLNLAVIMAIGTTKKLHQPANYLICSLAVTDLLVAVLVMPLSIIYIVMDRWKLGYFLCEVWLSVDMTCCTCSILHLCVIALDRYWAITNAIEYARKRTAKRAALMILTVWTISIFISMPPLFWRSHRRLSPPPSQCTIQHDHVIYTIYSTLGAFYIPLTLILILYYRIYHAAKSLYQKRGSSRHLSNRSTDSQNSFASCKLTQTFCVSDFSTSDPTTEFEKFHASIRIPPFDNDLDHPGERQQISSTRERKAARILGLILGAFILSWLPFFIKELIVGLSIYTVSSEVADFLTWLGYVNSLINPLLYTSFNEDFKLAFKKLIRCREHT

[1] = read-out: pKi 5HT1D (converted)

D2, sequence (P14416 whole entry): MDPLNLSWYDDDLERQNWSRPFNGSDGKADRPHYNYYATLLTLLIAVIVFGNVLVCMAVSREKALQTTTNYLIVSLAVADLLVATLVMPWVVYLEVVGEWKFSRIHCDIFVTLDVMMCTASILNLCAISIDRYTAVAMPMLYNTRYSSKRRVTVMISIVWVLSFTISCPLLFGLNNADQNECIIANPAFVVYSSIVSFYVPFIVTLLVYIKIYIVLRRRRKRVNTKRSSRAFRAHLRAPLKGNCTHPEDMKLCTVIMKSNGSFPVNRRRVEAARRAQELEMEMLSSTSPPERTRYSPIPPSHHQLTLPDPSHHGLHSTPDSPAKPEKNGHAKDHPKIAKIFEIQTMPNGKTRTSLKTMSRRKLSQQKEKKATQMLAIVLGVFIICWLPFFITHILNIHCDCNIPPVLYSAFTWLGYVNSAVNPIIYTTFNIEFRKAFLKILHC

SMILES: OCCOCCN1CCN(C2=Nc3ccccc3Sc3ccccc32)CC1 [Seroquel]
Ki (5HT1E): > 1000 nM

SMILES: O=C1NCCN1CCN1CCC(c2cn(-c3ccc(F)cc3)c3ccc(Cl)cc23)CC1 [Sertindole]
Ki (5HT1B): 10 to 100 nM
Ki (5HT1D; [1]): 10 to 100 nM
Ki (Alpha1A): < 1 nM
Ki (D1): 10 to 100 nM

SMILES: O=C1CC2(CCCC2)CC(=O)N1CCCCN1CCN(c2nsc3ccccc23)CC1 [Tiospirone]
Ki (D2): 1 to 10 nM
Ki (5-HT2A receptor): < 1 nM
Ki (Alpha2A): 100 to 1000 nM
Ki (D3): 1 to 10 nM
Ki (Alpha1A): < 1 nM
Ki (D4 receptor): 1 to 10 nM

SMILES: COC(=O)[C@@H]1[C@H]2C[C@H]3c4[nH]c5ccccc5c4CCN3C[C@@H]2CC[C@@H]1O [Yohimbine]
Ki (D2; read-out: pKi D2 (converted)): 100 to 1000 nM
Ki (5HT1D): 10 to 100 nM

SMILES: O=C1Cc2cc(CCN3CCN(c4nsc5ccccc45)CC3)c(Cl)cc2N1 [Ziprasidone]
Ki (5HT1B): < 1 nM
Ki (5HT1A): 1 to 10 nM
Ki (5HT1E): 100 to 1000 nM
Ki (5HT6rat): 10 to 100 nM
Ki (5HT1D; [1]): 1 to 10 nM
Ki (5HT2B): 1 to 10 nM
Ki (Beta2): > 1000 nM
Ki (Beta1): > 1000 nM
Ki (5HT7rat): 1 to 10 nM

SMILES: CN(C)CCOC1=Cc2ccccc2Sc2ccc(Cl)cc21 [Zotepine]
Ki (5HT1B): 10 to 100 nM
Ki (5HT1E): 100 to 1000 nM
Ki (5HT1D; [1]): 10 to 100 nM

The remaining lines, values ahead:

pKi D2 (D2): 7-8
pKi 5-HT2A (5-HT2A receptor): >9
pKi Alpha2A (Alpha2A): 6-7
pKi 5HT2C (5HT2C): 7-8
pKi 5HT1A (5HT1A): 8-9
pKi D3 (D3): 7-8
pKi 5HT6rat (5HT6rat; rat): 7-8
pKi Alpha2C (Alpha2C): 6-7
pKi 5HT2B (5HT2B): 8-9
pKi Alpha1A (Alpha1A): 8-9
pKi Alpha2B (Alpha2B): 7-8
pKi Beta2 (Beta2): <6
pKi Beta1 (Beta1): <6
pKi 5HT7rat (5HT7rat): 7-8
SMILES: O=C(CC1CCN(CCOc2cccc3c2OCCO3)C1)c1ccc(F)cc1 (stereo not shown) [S16924]

pKi D2 (D2): 7-8
pKi 5-HT2A (5-HT2A receptor): 8-9
pKi Alpha2A (Alpha2A): 6-7
pKi 5HT2C (5HT2C): 6-7
pKi 5HT1A (5HT1A): 7-8
pKi D3 (D3): 6-7
pKi Alpha1A (Alpha1A): >9
pKi D1 (D1): 7-8
pKi D4 (D4 receptor; D4): 8-9
SMILES: O=C1N(CCN2CCC(c3noc4cc(F)ccc34)CC2)CCN1c1ccccc1 [S18327]

pKi D2 (D2): 7-8
pKi Alpha2A (Alpha2A): <6
pKi 5HT2C (5HT2C): 7-8
pKi 5HT1B (5HT1B): 6-7
pKi 5HT1A (5HT1A): <6
pKi D3 (D3): >9
pKi 5HT1D (5HT1D): 6-7
pKi 5HT2B (5HT2B): 6-7
pKi Alpha1A (Alpha1A): 6-7
pKi D1 (D1): 6-7
SMILES: N#Cc1ccc2c(c1)[C@H]1CN(CCCCNC(=O)c3ccc(-c4ccccc4)cc3)C[C@@H]1CO2 [S33084]
